Entries after “also recorded” stand apart in the source; their conditions may differ.
Legend:
IFN-γ producing cells [1] = test: Promotion of immunity induction via transdermal immunization (conclusion from Tables 1, 2, 3, 8 and 10); format: in vivo, mouse; settings: acid as component of tape, liquid or cream formulations
IFN-γ producing cells [2] = test: Promotion of immunity induction using a mucosal vaccine (conclusion from Tables 4, 5 and 6); format: in vivo, mouse; settings: acid as component of sublingual liquid formulations

CCCCCCCCCC(=O)O [decanoic acid]
promotion of immunity induction via transdermal immunization (in words) (IFN-γ producing cells [1]): suitable; also recorded: particularly preferable

CC(C)CCCCCCCCCCCCCCC(=O)O [isostearic acid]
promotion of immunity induction via transdermal immunization (in words) (IFN-γ producing cells [1]): suitable; also recorded: preferable
promotion of immunity induction using a mucosal vaccine (in words) (IFN-γ producing cells [2]): suitable; also recorded: particularly preferable

CCCCCCCCCCCC(=O)O [lauric acid]
promotion of immunity induction via transdermal immunization (in words) (IFN-γ producing cells [1]): suitable; also recorded: particularly preferable

CCCCCCCCCCCCCC(=O)O [myristic acid]
promotion of immunity induction via transdermal immunization (in words) (IFN-γ producing cells [1]): suitable; also recorded: particularly preferable
promotion of immunity induction using a mucosal vaccine (in words) (IFN-γ producing cells [2]): suitable; also recorded: particularly preferable

O=C(O)CC(O)(CC(=O)O)C(=O)O [citric acid]
promotion of immunity induction using a mucosal vaccine (in words) (IFN-γ producing cells [2]): suitable; also recorded: particularly preferable

O=C(O)/C=C\C(=O)O [maleic acid]
promotion of immunity induction via transdermal immunization (in words) (IFN-γ producing cells [1]): suitable; also recorded: preferable
promotion of immunity induction using a mucosal vaccine (in words) (IFN-γ producing cells [2]): suitable; also recorded: preferable

O=C(O)c1ccccc1O [salicylic acid]
promotion of immunity induction via transdermal immunization (in words) (IFN-γ producing cells [1]): suitable; also recorded: particularly preferable
promotion of immunity induction using a mucosal vaccine (in words) (IFN-γ producing cells [2]): suitable

CCCCCCCCCCCCCCCCCC(=O)O [stearic acid]
promotion of immunity induction via transdermal immunization (in words) (IFN-γ producing cells [1]): suitable; also recorded: particularly preferable

CCCCCCCCCCCCCCCC(=O)O [palmitic acid]
promotion of immunity induction via transdermal immunization (in words) (IFN-γ producing cells [1]): suitable; also recorded: particularly preferable

O=C(O)CC(O)C(=O)O (stereo not shown) [malic acid]
promotion of immunity induction via transdermal immunization (in words) (IFN-γ producing cells [1]): suitable; also recorded: preferable
promotion of immunity induction using a mucosal vaccine (in words) (IFN-γ producing cells [2]): suitable

CS(=O)(=O)O [methanesulfonic acid]
promotion of immunity induction via transdermal immunization (in words) (IFN-γ producing cells [1]): suitable; also recorded: particularly preferable

CCCCCCCC/C=C\CCCCCCCC(=O)O [oleic acid]
promotion of immunity induction via transdermal immunization (in words) (IFN-γ producing cells [1]): suitable; also recorded: preferable

CC(O)C(=O)O (stereo not shown) [lactic acid]
promotion of immunity induction via transdermal immunization (in words) (IFN-γ producing cells [1]): suitable; also recorded: particularly preferable
promotion of immunity induction using a mucosal vaccine (in words) (IFN-γ producing cells [2]): suitable; also recorded: particularly preferable

— patent US20140220058A1, “VACCINE COMPOSITION FOR TRANSDERMAL OR MUCOSAL ADMINISTRATION” (NITTO DENKO CORPORATION, priority 2013, published 2014)
